Test results published in the supplement of paper PMC12613149.
Counter-ions that a name gives are not always drawn.

Key:
[1] = collision cross section (TIMS, N2 drift gas) of the primary ion; higher = larger gas-phase ion size
[2] = reversed-phase LC retention time (C18, 15 min MeOH gradient); higher = more hydrophobic / later elution
[3] = ionization mode: ESI+, ion species: [M+H]+
[4] = ionization mode: ESI-, ion species: [M-H]-
[5] = ionization mode: ESI+, ion species: [M]+

collision cross section [1, 3]	collision cross section [1, 4]	reversed-phase LC retention time [2, 3]	reversed-phase LC retention time [2, 4]	collision cross section [1, 5]	reversed-phase LC retention time [2, 5]	Structure (SMILES)
202.21 Å²		16.8 min				CCN(CCC#N)c1ccc(N=Nc2c(Br)cc([N+](=O)[O-])cc2Br)cc1 [Disperse Orange 61]
148.39 Å²		13.9 min				O=C1CCCCCCCCCCCN1 [Dodecane-12-lactam]
156.8 Å²	153.38 Å²	14.7 min	8.22 min			O=C(O)CCCCCCCCCCC(=O)O [Dodecanedioic acid]
	166.94 Å²		16.3 min			CCCCCCCCCCCCOS(=O)(=O)O [Dodecyl sulfate]
	185.13 Å²		17.3 min			CCCCCCCCCCCCc1ccccc1S(=O)(=O)O [Dodecylbenzenesulfonic acid]
				176.31 Å²	15.2 min	CCCCCCCCCCCC[N+](C)(C)C [Dodecyltrimethylammonium]
175.75 Å²		13.3 min				CC1CN(C2CCCCCCCCCCC2)CC(C)O1 (stereo unspecified) [Dodemorph]
	197.93 Å²		10.2 min			C[C@H]1c2cccc(O)c2C(=O)C2=C(O)[C@]3(O)C(=O)C(C(N)=O)=C(O)[C@@H](N(C)C)[C@@H]3[C@@H](O)[C@@H]21 [Doxycycline]
148.63 Å²	154.28 Å²	16.7 min	17.1 min			Cc1ccc(O)c(-n2nc3ccccc3n2)c1 [Drometrizole]
171.35 Å²		13 min				CNCCC(Oc1cccc2ccccc12)c1cccs1 (stereo unspecified) [Duloxetine]
177.44 Å²		15.1 min				CC(=O)[C@H]1CC[C@H]2[C@@H]3C=CC4=CC(=O)CC[C@@]4(C)[C@@H]3CC[C@]12C [Dydrogesterone]
168.93 Å²	167.59 Å²	15.4 min	15.8 min			O=C1Nc2ccc(Cl)cc2C(C#CC2CC2)(C(F)(F)F)O1 (stereo unspecified) [Efavirenz]
146.78 Å²		5.75 min				Nc1nc(=O)n([C@@H]2CS[C@H](CO)O2)cc1F [Emtricitabine]
187.31 Å²	193.85 Å²	11.6 min	12.2 min			CCOC(=O)[C@H](CCc1ccccc1)N[C@@H](C)C(=O)N1CCC[C@H]1C(=O)O [Enalapril]
216.71 Å²	224.72 Å²	17.5 min	16.6 min			CC1(C)[C@@H](O)CC[C@]2(C)[C@H]3C(=O)C=C4[C@@H]5C[C@@](C)(C(=O)O)CC[C@]5(C)CC[C@@]4(C)[C@]3(C)CC[C@@H]12 [Enoxolone]
186.48 Å²		8.4 min				CCN1CCN(c2cc3c(cc2F)c(=O)c(C(=O)O)cn3C2CC2)CC1 [Enrofloxacin]
	178.16 Å²		7.27 min			CCCCc1ncc(C(=O)O)n1Cc1ccc(C(=O)O)cc1 [Eprosartan acid]
206.28 Å²	198.36 Å²	11.2 min	10 min			CCCCc1ncc(/C=C(\Cc2cccs2)C(=O)O)n1Cc1ccc(C(=O)O)cc1 [Eprosartan]

collision cross section [1, 3]	collision cross section [1, 4]	reversed-phase LC retention time [2, 3]	reversed-phase LC retention time [2, 4]	collision cross section [1, 5]	reversed-phase LC retention time [2, 5]	Structure (SMILES)
200.01 Å²		19.6 min				CCCCCCCC/C=C\CCCCCCCCCCCC(N)=O [Erucamide]
259.69 Å²		13 min				CC[C@H]1OC(=O)[C@H](C)[C@@H](O[C@H]2C[C@@](C)(OC)[C@@H](O)[C@H](C)O2)[C@H](C)[C@@H](O[C@@H]2O[C@H](C)C[C@H](N(C)C)[C@H]2O)[C@](C)(O)C[C@@H](C)C(=O)[C@H](C)[C@@H](O)[C@]1(C)O [Erythromycin]
	176.65 Å²		11.4 min			C[C@]12CC[C@@H]3c4ccc(O)cc4CC[C@H]3[C@@H]1C[C@@H](O)[C@@H]2O [Estriol]
148.66 Å²		14.2 min				CCOC(=O)c1ccc(N(C)C)cc1 [Ethyl 4-(dimethylamino)benzoate]
	133.39 Å²		11.3 min			CCOC(=O)c1ccc(O)cc1 [Ethylparaben]
250.37 Å²		11.6 min				COc1cc(C2c3cc4c(cc3C(OC3OC5COC(C)OC5C(O)C3O)C3COC(=O)C23)OCO4)cc(OC)c1O (stereo unspecified) [Etoposide]
	222.47 Å²		11.9 min			COc1cc(C2c3cc4c(cc3C(OC3OC5COC(C)OC5C(O)C3O)C3COC(=O)C23)OCO4)cc(OC)c1O (stereo unspecified) [Etoposide_1]
	241.7 Å²		11.7 min			COc1cc(C2c3cc4c(cc3C(OC3OC5COC(C)OC5C(O)C3O)C3COC(=O)C23)OCO4)cc(OC)c1O (stereo unspecified) [Etoposide_2]
180.55 Å²		15.2 min				CCOC(=O)NCCOc1ccc(Oc2ccccc2)cc1 [Fenoxycarb]
177.46 Å²	188.8 Å²	10.8 min	14.3 min			CC(Cc1ccc(C(C)(C)C(=O)O)cc1)CN1CC(C)OC(C)C1 (stereo unspecified) [Fenpropimorph acid]
203.95 Å²		17.5 min				Cc1nn(C)c(Oc2ccccc2)c1/C=N/OCc1ccc(C(=O)OC(C)(C)C)cc1 [Fenpyroximate]
132.76 Å²		8.82 min				CN(C)C(=O)Nc1ccccc1 [Fenuron]
223.95 Å²	224.37 Å²	12.8 min	14.2 min			CC(C)(C(=O)O)c1ccc(C(O)CCCN2CCC(C(O)(c3ccccc3)c3ccccc3)CC2)cc1 (stereo unspecified) [Fexofenadine]
203.71 Å²	198.56 Å²	14.6 min	15 min			CC(C)(C)NC(=O)[C@H]1CC[C@H]2[C@@H]3CC[C@H]4NC(=O)C=C[C@]4(C)[C@H]3CC[C@]12C [Finasteride]
166.92 Å²	158.78 Å²	9.38 min	9.54 min			OC(Cn1cncn1)(Cn1cncn1)c1ccc(F)cc1F [Fluconazole]
	197.85 Å²		13.6 min			CC(=O)OCC(=O)[C@@]1(O)CC[C@H]2[C@@H]3CCC4=CC(=O)CC[C@]4(C)[C@@]3(F)[C@@H](O)C[C@@]21C [Fludrocortisone-21-acetate]
	159.1 Å²		14 min			O=C(O)c1ccccc1Nc1cccc(C(F)(F)F)c1 [Flufenamic acid]

Structure (SMILES)	collision cross section [1, 3]	collision cross section [1, 4]	reversed-phase LC retention time [2, 3]	reversed-phase LC retention time [2, 4]	collision cross section [1, 5]	reversed-phase LC retention time [2, 5]
O=P(O)(Oc1ccccc1)Oc1ccccc1 [Diphenylphosphate]	155.07 Å²	152.14 Å²	17.6 min	10.8 min		
CCCCCCCCCCCOC(=O)c1ccccc1C(=O)OCCCCCCCCCCC [Diundecylphthalate]	241.8 Å²		20.8 min			
C/C=C1\N(C)C(C)CC1(c1ccccc1)c1ccccc1 (stereo unspecified) [EDDP]	166.21 Å²		11.5 min			
CC[C@H](C)[C@H]1O[C@]2(C=C[C@@H]1C)C[C@@H]1C[C@@H](C/C=C(\C)[C@@H](O[C@H]3C[C@H](OC)[C@@H](O[C@H]4C[C@H](OC)[C@@H](NC)[C@H](C)O4)[C@H](C)O3)[C@@H](C)/C=C/C=C3\CO[C@@H]4[C@H](O)C(C)=C[C@@H](C(=O)O1)[C@]34O)O2 [Emamectin B1a]	283.49 Å²	296.31 Å²	17 min	18.9 min		
Fc1ccc(C2(Cn3cncn3)OC2c2ccccc2Cl)cc1 (stereo unspecified) [Epoxiconazole]	176.09 Å²		14.9 min			
CCOP(=S)(OCC)SCSP(=S)(OCC)OCC [Ethion]	176.99 Å²		16.9 min			
CCOC1Oc2ccc(OS(C)(=O)=O)cc2C1(C)C (stereo unspecified) [Ethofumesate]	166.62 Å²		13.8 min			
C=C1C[C@@H]2[C@H](CC[C@]3(C)C(=O)CC[C@@H]23)[C@@]2(C)C=CC(=O)C=C12 [Exemestane]	173.31 Å²		13.9 min			
CSC1=N[C@@](C)(c2ccccc2)C(=O)N1Nc1ccccc1 [Fenamidone]	173.13 Å²		14.1 min			
CC1(C(=O)Nc2ccc(O)c(Cl)c2Cl)CCCCC1 [Fenhexamid]	166.46 Å²	172.09 Å²	14.8 min	14.6 min		
CC(Oc1ccc(Oc2nc3ccc(Cl)cc3o2)cc1)C(=O)O (stereo unspecified) [Fenoxaprop-P]	181.01 Å²	189.16 Å²	15.3 min	13.9 min		
CC(Cc1ccc(C(C)(C)C)cc1)CN1CCCCC1 (stereo unspecified) [Fenpropidin]	166.93 Å²		13.6 min			
CC(Cc1ccc(C(C)(C)C)cc1)CN1C[C@@H](C)O[C@@H](C)C1 (stereo partly specified) [Fenpropimorph]	174.32 Å²		13.8 min			
COP(=S)(OC)Oc1ccc(SC)c(C)c1 [Fenthion]	160.76 Å²		14.1 min			
N#Cc1nn(-c2c(Cl)cc(C(F)(F)F)cc2Cl)c(N)c1C(F)(F)F [Fipronil desulfinyl]		168.16 Å²		15.4 min		
N#Cc1nn(-c2c(Cl)cc(C(F)(F)F)cc2Cl)c(N)c1SC(F)(F)F [Fipronil sulfide]		173.94 Å²		15.8 min		
N#Cc1nn(-c2c(Cl)cc(C(F)(F)F)cc2Cl)c(N)c1S(=O)(=O)C(F)(F)F [Fipronil sulfone]		178.27 Å²		16.1 min		
N#Cc1nn(-c2c(Cl)cc(C(F)(F)F)cc2Cl)c(N)c1S(=O)C(F)(F)F (stereo unspecified) [Fipronil]		177.2 Å²		15.6 min		
N#CCNC(=O)c1cnccc1C(F)(F)F [Flonicamid]	149.83 Å²		7.31 min			
Cc1cc(C(F)(C(F)(F)F)C(F)(F)F)ccc1NC(=O)c1cccc(I)c1C(=O)NC(C)(C)CS(C)(=O)=O [Flubendiamide]		222.96 Å²		15.8 min		
N#Cc1c[nH]cc1-c1cccc2c1OC(F)(F)O2 [Fludioxonil]		145.03 Å²		14.4 min		
CC(C)N(C(=O)COc1nnc(C(F)(F)F)s1)c1ccc(F)cc1 [Flufenacet]	178.11 Å²		14.9 min			
O=C(NC(=O)c1c(F)cccc1F)Nc1ccc(Oc2ccc(C(F)(F)F)cc2Cl)cc1F [Flufenoxuron]	204.54 Å²	215.68 Å²	17.4 min	17.8 min		
